Source: PubChem BioAssay (NCI)
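Tested at 5 concentrations; 48 h exposure; 96-well plates; endpoints linearly interpolated, else capped at highest concentration. TGI: total growth inhibition.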

Tests used:
Assay in all cases: NCI-60 cell line screen, 48 h
[1] = test system: 786-0 renal
[2] = test system: A498 renal
[3] = test system: A549 NSCLC
[4] = test system: ACHN renal
[5] = test system: BT-549 breast
[6] = test system: CAKI-1 renal
[7] = test system: CCRF-CEM leukemia
[8] = test system: COLO 205 colon
[9] = test system: DLD-1 colon
[10] = test system: DMS 273 small cell lung
[11] = test system: DU-145 prostate
[12] = test system: EKVX NSCLC
[13] = test system: HCC-2998 colon
[14] = test system: HCT-116 colon
[15] = test system: HCT-15 colon
[16] = test system: HL-60(TB) leukemia
[17] = test system: HOP-62 NSCLC
[18] = test system: HOP-92 NSCLC
[19] = test system: HS 578T breast
[20] = test system: HT29 colon
[21] = test system: IGROV1 ovarian
[22] = test system: K-562 leukemia
[23] = test system: KM12 colon
[24] = test system: KM20L2 colon
[25] = test system: LOX IMVI melanoma
[26] = test system: LXFL 529 NSCLC
[27] = test system: M14 melanoma
[28] = test system: M19-MEL melanoma
[29] = test system: MALME-3M melanoma
[30] = test system: MCF7 breast
[31] = test system: MDA-MB-231 breast
[32] = test system: MDA-MB-435
[33] = test system: MDA-N
[34] = test system: MOLT-4 leukemia
[35] = test system: NCI-H226 lung
[36] = test system: NCI-H23 lung
[37] = test system: NCI-H460 lung
[38] = test system: NCI-H522 lung
[39] = test system: NCI/ADR-RES ovarian
[40] = test system: OVCAR-3 ovarian
[41] = test system: OVCAR-4 ovarian
[42] = test system: OVCAR-5 ovarian
[43] = test system: OVCAR-8 ovarian
[44] = test system: PC-3 prostate
[45] = test system: RPMI-8226 leukemia
[46] = test system: RXF 393 renal
[47] = test system: SF-268 CNS
[48] = test system: SF-295 CNS
[49] = test system: SF-539 CNS
[50] = test system: SK-MEL-2 melanoma
[51] = test system: SK-MEL-28 melanoma
[52] = test system: SK-MEL-5 melanoma
[53] = test system: SK-OV-3 ovarian
[54] = test system: SN12C renal
[55] = test system: SNB-19 CNS
[56] = test system: SNB-75 CNS
[57] = test system: SNB-78 CNS
[58] = test system: SW-620 colon
[59] = test system: T-47D breast
[60] = test system: TK-10 renal
[61] = test system: U251 CNS
[62] = test system: UACC-257 melanoma
[63] = test system: UACC-62 melanoma
[64] = test system: UO-31 renal

CCCCN(Cc1ccccc1)C(=NC#N)N(Cc1ccccc1)Cc1ccccc1
TGI [1]: 56.2 µM
TGI [2]: > 100 µM
TGI [3]: > 100 µM
TGI [4]: > 72.3 µM
TGI [5]: 62.8 µM
TGI [6]: 58.4 µM
TGI [7]: > 100 µM
TGI [8]: 32.2 µM
TGI [9]: > 100 µM
TGI [10]: 43.6 µM
TGI [11]: > 100 µM
TGI [12]: > 100 µM
TGI [13]: > 75.7 µM
TGI [14]: 31.8 µM
TGI [15]: 77.2 µM
TGI [16]: > 100 µM
TGI [17]: 75.3 µM
TGI [18]: 53.1 µM
TGI [19]: 99.1 µM
TGI [20]: 85.2 µM
TGI [21]: > 89.5 µM
TGI [22]: > 100 µM
TGI [23]: 54 µM
TGI [24]: 95.6 µM
TGI [25]: 35.1 µM
TGI [26]: 34.3 µM
TGI [27]: 47.4 µM
TGI [28]: 62.6 µM
TGI [29]: 79.4 µM
TGI [30]: > 100 µM
TGI [31]: 51.7 µM
TGI [32]: 59.3 µM
TGI [33]: 59.9 µM
TGI [34]: > 100 µM
TGI [35]: 70.5 µM
TGI [36]: > 74.5 µM
TGI [37]: > 100 µM
TGI [38]: 40.6 µM
TGI [39]: 59.7 µM
TGI [40]: 28.9 µM
TGI [41]: > 100 µM
TGI [42]: > 100 µM
TGI [43]: > 100 µM
TGI [44]: 32.8 µM
TGI [45]: 49.8 µM
TGI [46]: 63.8 µM
TGI [47]: > 100 µM
TGI [48]: > 66 µM
TGI [49]: 46.8 µM
TGI [50]: 37.6 µM
TGI [51]: > 100 µM
TGI [52]: 29.4 µM
TGI [53]: > 96.1 µM
TGI [54]: > 80.5 µM
TGI [55]: > 100 µM
TGI [56]: 71.4 µM
TGI [57]: > 100 µM
TGI [58]: > 100 µM
TGI [59]: > 100 µM
TGI [60]: > 100 µM
TGI [61]: 81.4 µM
TGI [62]: 50.7 µM
TGI [63]: 74.7 µM
TGI [64]: > 52.4 µM
